Patent US6461997B1, “Triazole sulfones having herbicidal activity” (Monsanto Technology LLC, priority 1999, dated 2002)

Experiments:
[1] = test system: AGSST (creeping bentgrass); test: Pre-emergence herbicidal activity, cool season; format: in vivo, Agrostis stolonifera; conditions: GR80 = lowest tested rate (300, 100, 30, 10 g/ha) with 80% or greater inhibition; approx. 14 days after treating; 18/13° C.
Summary of the method: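 GR80 values derive from percent inhibition relative to untreated plants, read roughly 14 days after sowing and pre-emergence soil-surface treatment (compound in 50:50 acetone/water; rates typically 10, 30, 100, 300 g/ha). Warm-season weeds grew at 30/21° C day/night, cool-season ones at 18/13° C; an asterisk marks activity without reaching 80% at the highest rate.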

POLCO (wild buckwheat) = test: Pre-plant incorporated (PPI) herbicidal activity, cool season; format: in vivo, Polygonum convolvulus; conditions: for Percent inhibition POLCO: weed, PPI application; for PPI activity GR80, POLCO: pre-plant incorporated, lowest tested rate with 80% or greater inhibition, about 14 days
Summary of the method: (§1)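 Cool-season species were held at 18/13° C in greenhouse or growth chamber, warm-season ones at 30/21° C in greenhouse. Test compound had been sprayed onto cover soil, mixed, and applied over the seeds. Percent inhibition against untreated pots was recorded about 14 days post-treatment.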

SETFA (giant foxtail) = test: Pre-emergence herbicidal activity, warm season; format: in vivo, Setaria faberi; conditions: GR80 = lowest tested rate (300, 100, 30, 10 g/ha) with 80% or greater inhibition; approx. 14 days after treating; 30/21° C.
Summary of the method: (§2)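 Seeds sown in sterilised fertilised topsoil received surface-applied compound in 50:50 acetone/water, typically at 300, 100, 30 and 10 g/ha, then greenhouse-grown at 30/21° C (warm-season species) or 18/13° C (cool-season species). Percent inhibition versus untreated plants was scored at about 14 days, giving GR80; an asterisk marks activity short of 80% at the top rate.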

SORVU (shattercane) = test: Pre-plant incorporated (PPI) herbicidal activity, warm season; format: in vivo, Sorghum vulgare; conditions: for Percent inhibition SORVU: PPI application; for PPI activity GR80, SORVU: pre-plant incorporated, lowest tested rate with 80% or greater inhibition, about 14 days
Summary of the method: as §1

ABUTH (velvetleaf) = test: as above; format: in vivo, Abutilon theophrasti; conditions: for Percent inhibition ABUTH: PPI application; for PPI activity (GR80) ABUTH: pre-plant incorporated, GR80 = lowest tested rate with 80% or greater inhibition, approx. 14 days after treating, 30/21° C.
Summary of the method: as §1

ALOMY (blackgrass) = test: Pre-emergence herbicidal activity, cool season; format: in vivo, Alopecurus myosuroides; conditions: GR80 = lowest tested rate (300, 100, 30, 10 g/ha) with 80% or greater inhibition; approx. 14 days after treating; 18/13° C.
Summary of the method: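 Activity is expressed as the rate giving 80% inhibition, with 300, 100, 30 and 10 g/ha typically tested. An asterisk marks activity short of 80% at the top rate. Warm-season grasses were held at 30/21 °C; cool-season blackgrass and wild buckwheat at 18/13 °C; scoring at about 14 days.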

PANDI (fall panicum) = test: Pre-emergence herbicidal activity, warm season; format: in vivo, Panicum dichotomiflorum; conditions: GR80 = lowest tested rate (300, 100, 30, 10 g/ha) with 80% or greater inhibition; approx. 14 days after treating; 30/21° C.
Summary of the method: as §2

rice (ORYSA) = test: Selectivity test, PPI, warm season crop; format: in vivo, Oryza sativa; conditions: PPI application
Summary of the method: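 Percent inhibition relative to untreated controls, assessed roughly 14 days post-planting. Seeds were covered with a soil layer into which solvent-borne compound had been sprayed and mixed. Plants were then grown at 30/21° C. (warm season) or 18/13° C. (cool season) day/night regimes.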

STEME (common chickweed) = test: Pre-plant incorporated (PPI) herbicidal activity, cool season; format: in vivo, Stellaria media; conditions: for Percent inhibition STEME: weed, PPI application; for PPI activity GR80, STEME: pre-plant incorporated, lowest tested rate with 80% or greater inhibition, about 14 days
Summary of the method: as §1

| SMILES | Pre-emergence activity (GR80) AGSST [1] [g/ha] | Percent inhibition POLCO (POLCO (wild buckwheat); 30 g/ha) [%] | Percent inhibition POLCO (POLCO (wild buckwheat); 100 g/ha) [%] | Percent inhibition POLCO (POLCO (wild buckwheat); 300 g/ha) [%] | Percent inhibition POLCO (POLCO (wild buckwheat); 900 g/ha) [%] | Pre-emergence activity (GR80) SETFA (SETFA (giant foxtail)) | Percent inhibition SORVU (SORVU (shattercane); 30 g/ha) [%] | Percent inhibition SORVU (SORVU (shattercane); 100 g/ha) [%] | Percent inhibition SORVU (SORVU (shattercane); 300 g/ha) [%] | Percent inhibition SORVU (SORVU (shattercane); 900 g/ha) [%] | Percent inhibition ABUTH (ABUTH (velvetleaf); 30 g/ha) [%] | Percent inhibition ABUTH (ABUTH (velvetleaf); 100 g/ha) [%] | Percent inhibition ABUTH (ABUTH (velvetleaf); 300 g/ha) [%] | Percent inhibition ABUTH (ABUTH (velvetleaf); 900 g/ha) [%] | Pre-emergence activity (GR80) ALOMY (ALOMY (blackgrass)) [g/ha] | Pre-emergence activity (GR80) PANDI (PANDI (fall panicum)) [g/ha] | Percent inhibition ORYSA (rice (ORYSA); 30 g/ha) [%] | Percent inhibition ORYSA (rice (ORYSA); 100 g/ha) [%] | Percent inhibition ORYSA (rice (ORYSA); 300 g/ha) [%] | Percent inhibition ORYSA (rice (ORYSA); 900 g/ha) [%] | other results |
| --- | --- | --- | --- | --- | --- | --- | --- | --- | --- | --- | --- | --- | --- | --- | --- | --- | --- | --- | --- | --- | --- |
| CCN(CC)C(=O)n1cnc(S(=O)(=O)C(F)(F)C(F)(F)Br)n1 [Example 4] | 10 | 0 | 60 | 90 | 100 | 30 g/ha | 0 | 45 | 100 | 100 | 0 | 0 | 20 | 70 | 300 | 30 | 0 | 0 | 0 | 20 | Percent inhibition STEME (STEME (common chickweed); 30 g/ha): 10%; Percent inhibition STEME (STEME (common chickweed); 100 g/ha): 60%; Percent inhibition STEME (STEME (common chickweed); 300 g/ha): 80%; Percent inhibition STEME (STEME (common chickweed); 900 g/ha): 95% |
| CCN(CC)C(=O)n1cnc(S(=O)(=O)C(F)(F)SCc2ccccc2)n1 [Example 10] | 100 | 0 | 60 | 80 | 95 | 100 g/ha | 0 | 20 | 95 | 100 | 0 | 0 | 30 | 50 | 300 | 300 | 0 | 0 | 30 | 0 | Percent inhibition POLCO (POLCO (wild buckwheat); 10 g/ha): 0%; Percent inhibition SORVU (SORVU (shattercane); 10 g/ha): 0%; Percent inhibition ABUTH (ABUTH (velvetleaf); 10 g/ha): 0%; Percent inhibition ORYSA (rice (ORYSA); 10 g/ha): 0%; Percent inhibition STEME (STEME (common chickweed); 10 g/ha): 0%; Percent inhibition STEME (STEME (common chickweed); 30 g/ha): 0%; Percent inhibition STEME (STEME (common chickweed); 100 g/ha): 0%; Percent inhibition STEME (STEME (common chickweed); 300 g/ha): 0%; Percent inhibition STEME (STEME (common chickweed); 900 g/ha): 90% |
| CCN(CC)C(=O)n1cnc(S(=O)(=O)C(F)(F)SCCOC)n1 [Example 13] | 100 | 50 | 40 | 80 | 90 | * (activity observed, at least at highest rate, but <80% inhibition) | 50 | 90 | 100 | 100 | 0 | 0 | 20 | 85 | 300 | 300 | 30 | 70 | 60 | 80 | PPI activity GR80, POLCO (POLCO (wild buckwheat)): * (activity observed, at least at highest rate, but <80% inhibition); Percent inhibition POLCO (POLCO (wild buckwheat); 10 g/ha): 0%; Percent inhibition SORVU (SORVU (shattercane); 10 g/ha): 0%; PPI activity GR80, SORVU (SORVU (shattercane)): 300 g/ha; Percent inhibition ABUTH (ABUTH (velvetleaf); 10 g/ha): 0%; PPI activity (GR80) ABUTH (ABUTH (velvetleaf)): 100 g/ha; Percent inhibition ORYSA (rice (ORYSA); 10 g/ha): 0%; PPI activity GR80, STEME (STEME (common chickweed)): * (activity observed, at least at highest rate, but <80% inhibition); Percent inhibition STEME (STEME (common chickweed); 10 g/ha): 0%; Percent inhibition STEME (STEME (common chickweed); 30 g/ha): 0%; Percent inhibition STEME (STEME (common chickweed); 100 g/ha): 20%; Percent inhibition STEME (STEME (common chickweed); 300 g/ha): 100%; Percent inhibition STEME (STEME (common chickweed); 900 g/ha): 99% |
| CCN(CC)C(=O)n1cnc(S(=O)(=O)C(F)(F)C(F)F)n1 [Example 16] | 30 | 0 | 0 | 0 | 95 | 30 g/ha | 80 | 100 | 100 | 100 | 0 | 0 | 30 | 95 | 100 | 100 | 0 | 30 | 90 | 100 | PPI activity GR80, POLCO (POLCO (wild buckwheat)): 100 g/ha; Percent inhibition POLCO (POLCO (wild buckwheat); 10 g/ha): 0%; Percent inhibition SORVU (SORVU (shattercane); 10 g/ha): 20%; PPI activity GR80, SORVU (SORVU (shattercane)): 30 g/ha; Percent inhibition ABUTH (ABUTH (velvetleaf); 10 g/ha): 0%; PPI activity (GR80) ABUTH (ABUTH (velvetleaf)): 100 g/ha; Percent inhibition ORYSA (rice (ORYSA); 10 g/ha): 0%; PPI activity GR80, STEME (STEME (common chickweed)): 300 g/ha; Percent inhibition STEME (STEME (common chickweed); 10 g/ha): 40%; Percent inhibition STEME (STEME (common chickweed); 30 g/ha): 75%; Percent inhibition STEME (STEME (common chickweed); 100 g/ha): 60%; Percent inhibition STEME (STEME (common chickweed); 300 g/ha): 60%; Percent inhibition STEME (STEME (common chickweed); 900 g/ha): 95% |
